Reference: ChEMBL document CHEMBL1124501, “Novel cytotoxic compounds from the ascidian Lissoclinum bistratum” (J Med Chem, 1989)
≈ marks a conversion by molar mass, not a printed value.

Assays:
Type in all cases: functional, cell-based
MRC5CV1 = test: Cytotoxicity evaluated by incorporation of [methyl-3H]thymidine into human MRC5CV1, a control fibroblast cell line
T-24 [1] = test: Cytotoxicity evaluated by incorporation of [methyl-3H]thymidine into human T24, a bladder carcinoma cell line
T-24 [2] = test: Cytotoxicity evaluated by incorporation of [methyl-3H]thymidine into human T24, a bladder carcinoma cell line.
P388 = test: Cytotoxicity in vitro against P388 cell line.; conditions: Mus musculus

Compound	IC50 (MRC5CV1)	IC50 (T-24 [1])	IC50 (T-24 [2])	IC50 (P388)
CC(C)[C@@H]1NC(=O)c2csc(n2)[C@H](Cc2ccccc2)NC(=O)C2CSC(=N2)[C@@H](C)NC(=O)[C@H]2N=C1O[C@@H]2C [BISTRATAMIDE B]	> 100 µg/mL	0.09 µg/mL (≈ 0.158 µM)	–	–
C/C=C/C(=O)CC1CCC2(O)CC(C)C(CCCNC(=O)C(C)C3CNC(=O)CC(O1)C(C)CCCCC(CCC(C)/C=C(\C)C(C)OC(C)=O)O3)O2 (centres undefined) [BISTRATENE B]	0.09 µg/mL (≈ 0.12 µM)	–	0.09 µg/mL (≈ 0.12 µM)	–
CC(C)[C@@H]1NC(=O)C2CSC(=N2)[C@H](Cc2ccccc2)NC(=O)C2CSC(=N2)[C@@H](C)NC(=O)[C@H]2N=C1O[C@@H]2C [BISTRATAMIDE A]	50 µg/mL (≈ 87.6 µM)	–	0.07 µg/mL (≈ 0.123 µM)	–
C/C=C/C(=O)CC1CCC2(O)CC(C)C(CCCNC(=O)C(C)C3CNC(=O)CC(O1)C(C)CCCCC(CCC(C)/C=C(\C)C(C)O)O3)O2 (centres undefined) [BISTRATENE A]	0.07 µg/mL (≈ 0.0993 µM)	–	0.07 µg/mL (≈ 0.0993 µM)	–
CCC/C=C/C=C/C(=O)O[C@H]1/C(=C/C(=O)OC)C[C@H]2CC([C@@H](C)O)OC(=O)C[C@H](O)C[C@@H]3C[C@H](OC(C)=O)C(C)(C)[C@](O)(C[C@@H]4C/C(=C/C(=O)OC)C[C@H](/C=C/C(C)(C)[C@]1(O)O2)O4)O3 (some centres undefined) [BRYOSTATINS]	–	–	–	0.89 µg/mL (≈ 0.983 µM)
